{"source": "paper PMC12189671", "about": "“Antioxidant Activity and Cytotoxicity Evaluation of New Catechol Hydrazinyl-Thiazole Derivatives as Potential Protectors in Retinal Degenerative Processes” (Antioxidants, 2025)", "tested_on": "ARPE-19 cells", "test": "Cell viability (resazurin) on ARPE-19", "assay_type": "cell-based, human", "details": "ARPE-19, up to 50 µM", "from_the_text": "The ARPE-19 cell line was purchased from CLS Cell Lines Service GmbH (Eppelheim, Germany) and cultured in Dulbecco’s modified Eagle’s medium/F-12 (HAM) 1:1 (Biological Industries, Beit, Israel). The medium was supplemented with 10% fetal bovine serum (FBS) (Thermo Fisher Scientific, Waltham, MA, USA) and 1% penicillin-streptomycin (Biosera, Cholet, France). The cancerous cell line A549 was purchased from ATCC (Manassas, VA, USA) and cultivated in high-glucose Dulbecco’s modified Eagle’s medium (DMEM 4.5 g/L). The normal BJ cell line was also purchased from ATCC (Manassas, VA, USA) and was cultivated in low-glucose Dulbecco’s modified Eagle’s medium (DMEM 1 g/L). The media was supplemented in both cases with 10% FBS. Cells were cultured in T75 flasks and incubated at 37 °C in a humidified incubator with 5% CO2 supplementation. For maintenance, the media was changed every 2–3 days, and when the confluence of the flask reached approximately 85%, the cells were either subcultured or further used in the experiments.\nARPE-19 cells were seeded at a density of 2 × 10^4 cells/well and 1 × 10^4 cells/well (suspended in 100 µL) in 96-well plates for 24 h and 48 h, respectively. For the BJ cells, the seeding density was 0.5 × 10^4 cells/well and 0.3 × 10^4 cells/well for 24 h and 48 h, respectively, and for the A549 cells, 1.5 × 10^4 cells/well for 24 h and 0.75 × 10^4 cells/well for 48 h. As cells have different sizes and volumes, the different seeding densities were selected to reach a confluency of 80–90% by the end of the experiments. Cells were further exposed to the synthesized compounds for 24/48 h at concentrations ranging from 12.5 to 500 µM. After the incubation period, the exposure media was removed, the cells were washed with PBS, and further incubated with a 200 µM resazurin solution for 3 h as described in our previous report. The conversion of resazurin to the fluorescent resorufin compound by viable cells was measured at λexcitation = 550; λemission = 600, using SpectraMax iD3 (Molecular Devices, San Jose, CA, USA). The experiments were conducted in biological triplicate, each with a minimum of 3 technical replicates. The measured viability was expressed as relative values to the control (cells exposed only to the vehicle–culture medium containing 0.4% DMSO)."}
{"smiles": "C/C=C/C=N/Nc1nc(-c2ccc(O)c(O)c2)cs1.Cl", "note": "[Compound 5a, 4-(2-(2-((1E,2E)-but-2-en-1-ylidene)hydrazineyl)thiazol-4-yl)benzene-1,2-diol hydrochloride]", "values": [{"measurement": "effect on ARPE-19 cell viability", "value": "slight proliferative effect"}]}
